PubChem BioAssay (NCI)
“And” between values parts separate entries of the source, which are not always exact repeats. Equal values may be shown once.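 Following 48 hours of exposure in 96-well plates, responses at five concentrations were used to interpolate endpoints linearly. Here, GI50 denotes the concentration required for 50% inhibition of growth. TGI: total growth inhibition.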

Key:
Assay in all cases: NCI tumour cell line growth inhibition, 48 h
LXFL 529 NSCLC = system: LXFL 529 NSCLC
COLO 205 colon = system: COLO 205 colon
KM20L2 colon = system: KM20L2 colon
HL-60(TB) leukemia = system: HL-60(TB) leukemia
DMS 273 small cell lung = system: DMS 273 small cell lung
HS 578T breast = system: HS 578T breast
BT-549 breast = system: BT-549 breast
NCI/ADR-RES ovarian = system: NCI/ADR-RES ovarian
T-47D breast = system: T-47D breast
MDA-MB-435 = system: MDA-MB-435

Row | SMILES | TGI (LXFL 529 NSCLC) | TGI (COLO 205 colon) | TGI (KM20L2 colon) | TGI (HL-60(TB) leukemia) | TGI (DMS 273 small cell lung) | further results
1 | Cc1cccc(NC(=O)Cc2nc3ccccc3s2)c1C | > 100 µM | > 100 µM | > 100 µM | > 100 µM | > 100 µM | 
2 | O/N=C1/C(=C/c2ccc(Cl)cc2)CCCC1C(NO)c1ccc(Cl)cc1 (centres undefined) | > 100 µM | 42.3 µM | 36.6 µM | 43.3 µM | 41.2 µM | 
3 | COc1cc(C(=C2SCCS2)c2nccc3cc(OC)c(OC)cc23)c([N+](=O)[O-])cc1OC | > 100 µM | > 100 µM | > 100 µM | 94.6 µM | > 100 µM | 
4 | CO[C@@]12[C@H](COC(N)=O)C3=C(C(=O)C(C)=C(N)C3=O)N1C[C@@H]1N[C@@H]12 | 7.53 µM | 5.21 µM and 8.43 µM and 7.05 µM | 10.2 µM |  | 3.6 µM | GI50 (HS 578T breast): 4.21 µM and 5.26 µM; TGI (HS 578T breast): 15.3 µM and 14 µM and 52.1 µM; GI50 (BT-549 breast): 0.799 µM; TGI (BT-549 breast): 9.38 µM and 6.85 µM and 6.4 µM; GI50 (COLO 205 colon): 1.7 µM; GI50 (NCI/ADR-RES ovarian): 3.83 µM; TGI (NCI/ADR-RES ovarian): 20 µM and 21.4 µM and > 100 µM; GI50 (HL-60(TB) leukemia): 0.126 µM; GI50 (T-47D breast): 2.25 µM and 1.41 µM; GI50 (MDA-MB-435): 2.14 µM and 2.91 µM and 1.53 µM; TGI (MDA-MB-435): 6.92 µM and 12.7 µM and 15.3 µM
5 | CN(C)NC(=S)NC12CC3CC(CC(C3)C1)C2 | > 100 µM | > 100 µM | > 100 µM | > 100 µM | > 100 µM | 
6 | O/N=C1/C(=C/c2ccccc2)CCCC1C(NO)c1ccccc1 (centres undefined) | > 100 µM | > 100 µM | > 100 µM | 5.03 µM | > 100 µM | 
7 | CN(C(=O)C1CC1)C1C2CN3CCC(O2)C13 (centres undefined) | > 100 µM | > 100 µM | > 100 µM | > 100 µM | > 100 µM | 
8 | COC(=O)NN=C1C(C)(C)C(=NNC(=O)OC)C1(C)C | > 100 µM | > 56 µM | > 100 µM | > 100 µM | > 100 µM | 
9 | O=C1c2c(O)cccc2C(C(=O)CCCC(=O)C2c3cccc(O)c3C(=O)c3c(O)cccc32)c2cccc(O)c21 | 0.48 µM | 1.32 µM | 8.68 µM |  | 1.26 µM | TGI (HS 578T breast): 0.202 µM; TGI (BT-549 breast): 4.74 µM; TGI (T-47D breast): 0.941 µM; TGI (MDA-MB-435): 2.5 µM
10 | CCCCCC/C=C/CCCCCCCc1cccc(O)c1C(=O)O | > 100 µM | > 100 µM | > 100 µM | > 100 µM | > 100 µM | 
11 | c1ccc([P+](CCC[P+](c2ccccc2)(c2ccccc2)c2ccccc2)(c2ccccc2)c2ccccc2)cc1 | > 100 µM | 96.6 µM and 10.5 µM | > 100 µM | 36.9 µM and 6.75 µM | 47.9 µM | GI50 (HS 578T breast): 11.8 µM; TGI (HS 578T breast): 85.4 µM; GI50 (BT-549 breast): 7.44 µM; TGI (BT-549 breast): > 100 µM; GI50 (COLO 205 colon): 2.89 µM; GI50 (NCI/ADR-RES ovarian): > 100 µM; TGI (NCI/ADR-RES ovarian): > 100 µM; GI50 (HL-60(TB) leukemia): 2.27 µM; GI50 (T-47D breast): 4.1 µM; TGI (T-47D breast): 84.9 µM; GI50 (MDA-MB-435): 4.84 µM; TGI (MDA-MB-435): > 100 µM
12 | C[C@@]1(CBr)C[C@@](C)(/C=C/Cl)[C@@H](Cl)C[C@H]1Cl | 21.7 µM | 28.1 µM | 24.6 µM | 8.6 µM | 22.8 µM | 
13 | CC(=O)NNc1nc(C)c(C(/C=C/c2ccc(Cl)cc2)=N/NC(=S)NN)s1 | > 100 µM | > 100 µM | > 100 µM | > 100 µM | > 100 µM | 
14 | CC(=O)OC1C/C(C)=C/[C@H](O)CC(C)/C=C/[C@@]2(C)CCC(C(C)(C)O)C12 (some centres undefined) | > 100 µM | > 100 µM | > 100 µM | > 100 µM | > 100 µM | 
15 | C[n+]1ccc2[nH]c3ccccc3c2c1 | > 100 µM | > 100 µM | > 100 µM | > 100 µM | > 100 µM | 
16 | CN(/C(=N\O)c1ccccc1)c1ccccc1 | > 100 µM | > 100 µM | 41.5 µM | 48.7 µM | 50.7 µM | 
17 | CCN1CCC(O)(c2ccc(Cl)c(Cl)c2)C(C(=O)c2ccc(Cl)c(Cl)c2)C1 (centres undefined) | 30.1 µM | 31.7 µM | 36.6 µM | 33.4 µM | 34 µM | 
18 | CC(=O)[CH-]C(=O)c1ccccc1.CC(=O)[CH-]C(=O)c1ccccc1.CC[O-].O=C1C=C([O-])C(=O)c2ccccc21.[Ti+4] | > 100 µM | > 100 µM | > 100 µM | 80 µM | > 100 µM | GI50 (LXFL 529 NSCLC): 48.8 µM; GI50 (COLO 205 colon): 26.9 µM; GI50 (KM20L2 colon): 42.4 µM; GI50 (HL-60(TB) leukemia): 16.1 µM; GI50 (DMS 273 small cell lung): 96.4 µM
19 | COc1ccc(CC(C#N)c2cc(OC)c(OC)c(OC)c2)cc1 (centres undefined) | > 100 µM | 0.133 µM | 0.195 µM | 0.125 µM | 0.405 µM | TGI (HS 578T breast): > 100 µM; TGI (BT-549 breast): > 100 µM; TGI (NCI/ADR-RES ovarian): > 100 µM; TGI (MDA-MB-435): > 100 µM
